Reference: ChEMBL document CHEMBL4825704, “Withanolide Derivative 2,3-Dihydro-3β-methoxy Withaferin-A Modulates the Circadian Clock via Interaction with RAR-Related Orphan Receptor α (RORa)” (J Nat Prod, 2021)
One block for each compound: values may come before it. Active and inactive are the calls of the source. The calls are words filed in the database; no cut-off is given here.

Columns and labels:
[1] = molecular target: T1, Nuclear receptor ROR-alpha (Mus musculus) (UniProt P51448); assay: Agonist activity at RORalpha in mouse NIH3T3 cells at 1 to 1000 uM incubated for 24 hrs by luminescence based assay; type: cell-based; settings: dose 1-1000 µM
T1 sequence (whole entry): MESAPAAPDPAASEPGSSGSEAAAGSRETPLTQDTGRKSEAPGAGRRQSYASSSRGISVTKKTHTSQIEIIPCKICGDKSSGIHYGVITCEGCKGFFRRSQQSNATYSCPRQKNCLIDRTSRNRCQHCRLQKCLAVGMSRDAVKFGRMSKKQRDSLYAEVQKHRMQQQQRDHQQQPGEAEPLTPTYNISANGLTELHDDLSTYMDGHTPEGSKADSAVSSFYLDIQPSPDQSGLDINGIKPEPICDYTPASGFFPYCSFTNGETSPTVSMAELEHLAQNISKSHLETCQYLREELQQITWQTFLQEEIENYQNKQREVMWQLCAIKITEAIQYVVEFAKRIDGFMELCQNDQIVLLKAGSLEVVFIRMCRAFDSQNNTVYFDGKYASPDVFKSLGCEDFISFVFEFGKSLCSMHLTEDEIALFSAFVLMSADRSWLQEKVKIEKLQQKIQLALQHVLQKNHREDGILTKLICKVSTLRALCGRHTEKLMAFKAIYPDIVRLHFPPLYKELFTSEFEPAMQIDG

NIH3T3 [2] = assay: Elongation of circadian rhythms in dexamethasone-induced mouse NIH3T3 cells assessed as increase in Bmal1 period time at 5 uM measured for 1 mins at 10 min interval up to 96 hrs by dual luciferase reporter gene assay (reference value: 25.02 +/- 0.15 hrs); type: functional; settings: time hrs <=96
Sarcoma-180 [3] = assay: Cytotoxicity against mouse Sarcoma-180 cells assessed as reduction in cell proliferation at 5 uM measured up to 5 days by WST-8 assay; type: functional, cell-based; settings: time day <=5
MEF [4] = assay: (§1) Elongation of circadian rhythms in dexamethasone-induced mouse embryonic fibroblasts expressing PER2-luc gene assessed as increase in PER2 period time at 25 uM measured for 1 mins at 10 min interval up to 96 hrs by bioluminescence based PER2 promoter-reporter gene assay (reference value: 23.17 +/- 0.10 hrs); type: functional; settings: time hrs <=96
Sarcoma-180 [5] = assay: Transcriptional upregulation of Bmal1 mRNA expression in dexamethasone-induced mouse Sarcoma-180 cells at 5 uM measured after 24 hrs by RT-qPCR analysis relative to control; type: functional
MEF [6] = assay: as §1, with “1.67” for “25”; type: functional; settings: time hrs <=96
[7] = Induction of Bmal1 promotor activity in dexamethasone-induced mouse NIH3T3 cells transfected with Bmal1 promotor-reporter plasmids at 5 uM measured after 24 hrs by bioluminescence assay relative to control; type: functional
Sarcoma-180 [8] = assay: Elongation of circadian rhythms in dexamethasone-induced mouse Sarcoma-180 cells assessed as increase in Bmal1 period length at 1 to 5 uM measured for 1 mins at 10 min interval up to 96 hrs by bioluminescence based Bmal1 promoter-reporter gene assay; type: functional, cell-based; settings: dose 1-5 µM, time hrs <=96
[9] = Induction of Bmal1 promotor activity in dexamethasone-induced mouse NIH3T3 cells transfected with Bmal1 promotor-reporter plasmids at 15 uM measured after 24 hrs by bioluminescence assay relative to control; type: functional
Sarcoma-180 [10] = assay: Transcriptional upregulation of Bmal1 mRNA expression in dexamethasone-induced mouse Sarcoma-180 cells at 1 uM measured after 24 hrs by RT-qPCR analysis relative to control; type: functional
MEF [11] = assay: as §1, with “5” for “25”; type: functional; settings: time hrs <=96
Sarcoma-180 [12] = assay: Cytotoxicity against mouse Sarcoma-180 cells assessed as reduction in cell proliferation at 1 uM measured up to 5 days by WST-8 assay; type: functional, cell-based; settings: time day <=5
Sarcoma-180 [13] = assay: Cytotoxicity against mouse Sarcoma-180 cells assessed as reduction in cell proliferation by measuring growth rate at 1 uM measured after 3 days by WST-8 assay relative to control; type: functional; set-up: scale not given: the % may be the effect or the level left
Sarcoma-180 [14] = assay: Elongation of circadian rhythms in dexamethasone-induced mouse Sarcoma-180 cells assessed as increase in Bmal1 period time at 5 uM measured for 1 mins at 10 min interval up to 96 hrs by bioluminescence based Bmal1 promoter-reporter gene assay (reference value: 25.70 +/- 0.30 hrs); type: functional; settings: time hrs <=96
[15] = molecular target: T2, Nuclear receptor ROR-alpha (Mus musculus, UniProt P51448); assay: Inverse agonist activity at RORalpha in mouse NIH3T3 cells incubated for 24 hrs by luminescence based assay; type: cell-based
T2 sequence (P51448 whole entry): T1 sequence (whole entry)

Sarcoma-180 [16] = assay: Elongation of circadian rhythms in dexamethasone-induced mouse Sarcoma-180 cells assessed as increase in Bmal1 period length measured for 1 mins at 10 min interval up to 96 hrs by bioluminescence based Bmal1 promoter-reporter gene assay; type: functional, cell-based; settings: dose 1-5 µM, time hrs <=96
NIH3T3 [17] = assay: Transcriptional upregulation of […] mRNA expression in dexamethasone-induced mouse NIH3T3 cells at 5 uM measured after 24 hrs by qPCR analysis relative to control; type: functional
NIH3T3 [18] = assay: Transcriptional upregulation of Bmal1 mRNA expression in dexamethasone-induced mouse NIH3T3 cells at 5 uM measured after 24 hrs by RT-qPCR analysis relative to control; type: functional
NIH3T3 [19] = assay: Elongation of circadian rhythms in dexamethasone-induced mouse NIH3T3 cells assessed as increase in Bmal1 period time at 1 uM measured for 1 mins at 10 min interval up to 96 hrs by dual luciferase reporter gene assay (reference value: 25.02 +/- 0.15 hrs); type: functional; settings: time hrs <=96
NIH3T3 [20] = assay: Transcriptional upregulation of […] mRNA expression in dexamethasone-induced mouse NIH3T3 cells at 15 uM measured after 24 hrs by qPCR analysis relative to control; type: functional
NIH3T3 [21] = assay: Transcriptional upregulation of Rora mRNA expression in dexamethasone-induced mouse NIH3T3 cells at 15 uM measured after 24 hrs by qPCR analysis relative to control; type: functional
MEF [22] = assay: as §1, with “1” for “25”; type: functional; settings: time hrs <=96
NIH3T3 [23] = assay: Transcriptional upregulation of Rora mRNA expression in dexamethasone-induced mouse NIH3T3 cells at 5 uM measured after 24 hrs by qPCR analysis relative to control; type: functional
NIH3T3 [24] = assay: Transcriptional upregulation of Bmal1 mRNA expression in dexamethasone-induced mouse NIH3T3 cells at 1 uM measured after 24 hrs by RT-qPCR analysis relative to control; type: functional

- Activity ([1]; filed as agonist): Active
SMILES: CC(C)CCC[C@@H](C)[C@H]1CC[C@H]2C3=CC=C4C[C@@H](O)CC[C@]4(C)[C@H]3CC[C@]12C

SMILES: CO[C@H]1CC(=O)[C@]2(C)[C@H]3CC[C@]4(C)[C@@H]([C@H](C)[C@H]5CC(C)=C(CO)C(=O)O5)CC[C@H]4[C@@H]3C[C@H]3O[C@]32[C@H]1O
- Time (NIH3T3 [2]): 26.06 h
- Activity (Sarcoma-180 [3]): Active
- Time (MEF [4]): 26.11 h
- fold change (FC) (Sarcoma-180 [5]): 2.13
- Time (MEF [6]): 24.17 h
- fold change (FC) [7]: 1.32
- Activity (Sarcoma-180 [8]): Active
- fold change (FC) [9]: 1.83
- fold change (FC) (Sarcoma-180 [10]): 1.34
- Time (MEF [11]): 25.36 h
- Activity (Sarcoma-180 [12]): Active
- Activity (Sarcoma-180 [13]; time 3 day): 59.8%
- Time (Sarcoma-180 [14]): 31.7 h
- IC50 [15]: 11.3 µM
- Activity (Sarcoma-180 [16]): Dose-Dependent Effect
- fold change (FC) (NIH3T3 [17]): 1.2
- Activity (NIH3T3 [18]): 1.75 fold change
- Time (NIH3T3 [19]): 25.01 h
- fold change (FC) (NIH3T3 [20]): 1.57
- fold change (FC) (NIH3T3 [21]): 1.68
- Time (MEF [22]): 22.98 h
- fold change (FC) (NIH3T3 [23]): 1.61
- Activity (NIH3T3 [24]): 1.43 fold change

- Activity [1]: inactive
SMILES: CC1=C(CO)C(=O)O[C@@H]([C@@H](C)[C@H]2CC[C@H]3[C@@H]4C[C@H]5O[C@]56[C@@H](O)C=CC(=O)[C@]6(C)[C@H]4CC[C@]23C)C1
- Activity (Sarcoma-180 [12]): Active
- Activity (Sarcoma-180 [13]; time 3.0 day): Active
- Activity (Sarcoma-180 [14]): Active
